Experimental data taken from patent US20150010928A1, “MEANS AND METHODS FOR ASSESSING AN ENDOCRINE DISEASE OR DISORDER” (priority 2012, published 2015).
Marks after values point to notes of the source that are not given here.

Test system: female rats
Assay: Plasma metabolite profiling (GC-MS, LC-MS, SPE-LC-MS) in female rats dosed once daily over 28 days (OECD 407)
Format: in vivo, rat
Details: high dose
How it was run: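 Polar and lipid fractions profiled by GC-MS and LC-MS/MRM, steroids by online SPE-LC-MS; pool-normalized data compared to controls by Welch test as treatment ratios and p-values.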

C[C@@H]1CC2=CC(=O)CC[C@@H]2[C@H]2CC[C@@]3(C)[C@@H](CC[C@]3(C)O)[C@@H]21 [Mibolerone]
3-Hydroxybutyrate (f7, female rats, Table 15a): 1.36 * | DAG (C18:1,C18:2) (f7, female rats, Table 15a): 0.43 | Glutamate (f7, female rats, Table 15a): 1.66 * | Glycine (f7, female rats, Table 15a): 1.19 * | Phosphatidylcholine (C16:0,C20:5) (f7, female rats, Table 15a): 0.56 | TAG (C16:0,C16:1) (f7, female rats, Table 15a): 2.26 | TAG (C16:0,C18:1,C18:3) (f7, female rats, Table 15a): 1.22 | TAG (C16:0,C18:2) (f7, female rats, Table 15a): 0.87 | TAG (C18:1,C18:2) (f7, female rats, Table 15a): 0.77 | TAG (C18:2,C18:2) (f7, female rats, Table 15a): 0.9 | TAG (C18:3, C18:2, C18:1) (f7, female rats, Table 15a): 0.99 | TAG (DAG-Fragment) (f7, female rats, Table 15a): 0.95 | TAG No 059 (f7, female rats, Table 15a): 1.08 * | Threonic acid (f7, female rats, Table 15a): 1.15 * | trans-4-Hydroxyproline (f7, female rats, Table 15a): 1.8 * | Androstenedione (f7, female rats, Table 15b): 0.14 * | Arginine (f7, female rats, Table 15b): 0.85 * | Campesterol (f7, female rats, Table 15b): 0.16 | Ceramide (d18:1,C24:0) (f7, female rats, Table 15b): 0.12 * | Lactate (f7, female rats, Table 15b): 0.62 * | Lysine (f7, female rats, Table 15b): 0.68 * | Metanephrine (f7, female rats, Table 15b): 0.62 * | Normetanephrine (f7, female rats, Table 15b): 1.15 | Phosphatidylcholine (C16:0,C20:5) (f7, female rats, Table 15b): 0.56 * | Phosphatidylcholine (C16:0,C22:6) (f7, female rats, Table 15b): 0.18 * | Phosphatidylcholine (C18:0, C20:3) (f7, female rats, Table 15b): 0.2 * | Phosphatidylcholine (C18:0,C18:1) (f7, female rats, Table 15b): 0.21 * | Progesterone (f7, female rats, Table 15b): 0.62 | Pyruvate (f7, female rats, Table 15b): 0.75 * | Sphingomyelin (d18:1,C23:0) (f7, female rats, Table 15b): 0.06 * | Sphingomyelin (d18:1,C24:0) (f7, female rats, Table 15b): 0.11 * | Urea (f7, female rats, Table 15b): 0.65 * | 3-Hydroxybutyrate (f14, female rats, Table 15a): 1.73 * | DAG (C18:1,C18:2) (f14, female rats, Table 15a): 2.88 * | Glutamate (f14, female rats, Table 15a): 1.67 * | Glycine (f14, female rats, Table 15a): 1.22 * | Phosphatidylcholine (C16:0,C20:5) (f14, female rats, Table 15a): 1.54 * | TAG (C16:0,C16:1) (f14, female rats, Table 15a): 12.22 * | TAG (C16:0,C18:1,C18:3) (f14, female rats, Table 15a): 8.88 * | TAG (C16:0,C18:2) (f14, female rats, Table 15a): 6.82 * | TAG (C18:1,C18:2) (f14, female rats, Table 15a): 8.37 * | TAG (C18:2,C18:2) (f14, female rats, Table 15a): 6.69 * | TAG (C18:3, C18:2, C18:1) (f14, female rats, Table 15a): 5.98 * | TAG (DAG-Fragment) (f14, female rats, Table 15a): 7.86 * | TAG No 059 (f14, female rats, Table 15a): 4.67 * | Threonic acid (f14, female rats, Table 15a): 1.18 * | trans-4-Hydroxyproline (f14, female rats, Table 15a): 2.44 * | Androstenedione (f14, female rats, Table 15b): 0.11 * | Arginine (f14, female rats, Table 15b): 0.98 * | Campesterol (f14, female rats, Table 15b): 0.89 | Ceramide (d18:1,C24:0) (f14, female rats, Table 15b): 2.02 * | Lactate (f14, female rats, Table 15b): 0.74 * | Lysine (f14, female rats, Table 15b): 0.63 * | Metanephrine (f14, female rats, Table 15b): 0.72 * | Normetanephrine (f14, female rats, Table 15b): 0.66 * | Phosphatidylcholine (C16:0,C20:5) (f14, female rats, Table 15b): 1.54 | Phosphatidylcholine (C16:0,C22:6) (f14, female rats, Table 15b): 0.84 * | Phosphatidylcholine (C18:0, C20:3) (f14, female rats, Table 15b): 0.98 | Phosphatidylcholine (C18:0,C18:1) (f14, female rats, Table 15b): 0.93 | Progesterone (f14, female rats, Table 15b): 0.13 * | Pyruvate (f14, female rats, Table 15b): 0.83 * | Sphingomyelin (d18:1,C23:0) (f14, female rats, Table 15b): 1.26 | Sphingomyelin (d18:1,C24:0) (f14, female rats, Table 15b): 1.33 * | Urea (f14, female rats, Table 15b): 0.48 * | 3-Hydroxybutyrate (f28, female rats, Table 15a): 1.06 | DAG (C18:1,C18:2) (f28, female rats, Table 15a): 2.27 * | Glutamate (f28, female rats, Table 15a): 1.73 * | Glycine (f28, female rats, Table 15a): 1.18 * | Phosphatidylcholine (C16:0,C20:5) (f28, female rats, Table 15a): 1.32 * | TAG (C16:0,C16:1) (f28, female rats, Table 15a): 5.83 * | TAG (C16:0,C18:1,C18:3) (f28, female rats, Table 15a): 6.23 * | TAG (C16:0,C18:2) (f28, female rats, Table 15a): 4.89 * | TAG (C18:1,C18:2) (f28, female rats, Table 15a): 4.95 * | TAG (C18:2,C18:2) (f28, female rats, Table 15a): 4.92 * | TAG (C18:3, C18:2, C18:1) (f28, female rats, Table 15a): 4.74 * | TAG (DAG-Fragment) (f28, female rats, Table 15a): 5.74 * | TAG No 059 (f28, female rats, Table 15a): 3.5 * | Threonic acid (f28, female rats, Table 15a): 1.94 * | trans-4-Hydroxyproline (f28, female rats, Table 15a): 2 * | Androstenedione (f28, female rats, Table 15b): 0.07 * | Arginine (f28, female rats, Table 15b): 0.83 * | Campesterol (f28, female rats, Table 15b): 0.54 * | Ceramide (d18:1,C24:0) (f28, female rats, Table 15b): 1.53 * | Lactate (f28, female rats, Table 15b): 0.73 * | Lysine (f28, female rats, Table 15b): 0.57 * | Metanephrine (f28, female rats, Table 15b): 0.66 * | Normetanephrine (f28, female rats, Table 15b): 0.78 * | Phosphatidylcholine (C16:0,C20:5) (f28, female rats, Table 15b): 1.32 | Phosphatidylcholine (C16:0,C22:6) (f28, female rats, Table 15b): 0.74 * | Phosphatidylcholine (C18:0, C20:3) (f28, female rats, Table 15b): 0.91 * | Phosphatidylcholine (C18:0,C18:1) (f28, female rats, Table 15b): 0.86 | Progesterone (f28, female rats, Table 15b): 0.06 * | Pyruvate (f28, female rats, Table 15b): 0.65 * | Sphingomyelin (d18:1,C23:0) (f28, female rats, Table 15b): 0.63 * | Sphingomyelin (d18:1,C24:0) (f28, female rats, Table 15b): 1.05 | Urea (f28, female rats, Table 15b): 0.88 *
